# Laboratory results as given in ChEMBL document CHEMBL1201862, “PubChem BioAssay data set” (2004).
#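 Protocol summary: plate cells (96-well), add compound at 5 concentrations, incubate 48 h, interpolate endpoints linearly. GI50: concentration for 50% inhibition of growth.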 Activity calls are given as the source filed them. Rule as the data show it: active = GI50 up to about 1.1 µM and inactive = higher.
# Tests used:
# Assay in all cases: inhibition of tumour cell growth, NCI panel, 48 h
# NCI-H23 = tested on: NCI-H23
# SR = tested on: SR
# NCI-H522 = tested on: NCI-H522
# SNB-75 = tested on: SNB-75
# SK-MEL-5 = tested on: SK-MEL-5
# LXFL 529 = tested on: LXFL 529
# UACC-257 = tested on: UACC-257
# SNB-78 = tested on: SNB-78
# M19-MEL = tested on: M19-MEL
# SN12C = tested on: SN12C
# M14 = tested on: M14
# NCI-H460 = tested on: NCI-H460
# OVCAR-4 = tested on: OVCAR-4
# CCRF-CEM = tested on: CCRF-CEM
# UACC-62 = tested on: UACC-62
# U-251 = tested on: U-251
# LOX IMVI = tested on: LOX IMVI
# OVCAR-5 = tested on: OVCAR-5
# XF498 = tested on: XF498
# RXF 393 = tested on: RXF 393
# HL-60 = tested on: HL-60
# HCC 2998 = tested on: HCC 2998
# A549 = tested on: A549
# HCT-15 = tested on: HCT-15
# NCI-H226 = tested on: NCI-H226
# KM-20L2 = tested on: KM-20L2
# SF-539 = tested on: SF-539
# SK-MEL-28 = tested on: SK-MEL-28
# OVCAR-3 = tested on: OVCAR-3
# HCT-116 = tested on: HCT-116
# UO-31 = tested on: UO-31
# HOP-92 = tested on: HOP-92
# HOP-18 = tested on: HOP-18
# SF-268 = tested on: SF-268
# SNB-19 = tested on: SNB-19
# RPMI-8226 = tested on: RPMI-8226
# COLO 205 = tested on: COLO 205
# Malme-3M = tested on: Malme-3M
# KM12 = tested on: KM12
# HOP-62 = tested on: HOP-62
# 786-0 = tested on: 786-0
# OVCAR-8 = tested on: OVCAR-8
# HT-29 = tested on: HT-29
# TK-10 = tested on: TK-10
# DMS-273 = tested on: DMS-273
# SF-295 = tested on: SF-295
# K562 = tested on: K562
# SK-MEL-2 = tested on: SK-MEL-2
# DLD-1 = tested on: DLD-1
# ACHN = tested on: ACHN
# MOLT-4 = tested on: MOLT-4
# EKVX = tested on: EKVX
# SK-OV-3 = tested on: SK-OV-3
# SW-620 = tested on: SW-620
# CAKI-1 = tested on: CAKI-1
structure (smiles),measurement,setting,value
Cc1ccc(NCC(=O)N2CC(=O)Nc3ccccc32)c(C)c1,GI50,NCI-H23,> 100 µM (inactive)
same,GI50,SR,> 100 µM (inactive)
same,GI50,NCI-H522,> 100 µM (inactive)
same,GI50,SNB-75,> 100 µM (inactive)
same,GI50,SK-MEL-5,> 100 µM (inactive)
same,GI50,LXFL 529,> 100 µM (inactive)
same,GI50,UACC-257,> 100 µM (inactive)
same,GI50,SNB-78,> 100 µM (inactive)
same,GI50,M19-MEL,> 100 µM (inactive)
same,GI50,SN12C,> 100 µM (inactive)
same,GI50,M14,> 100 µM (inactive)
same,GI50,NCI-H460,> 100 µM (inactive)
same,GI50,OVCAR-4,> 100 µM (inactive)
same,GI50,CCRF-CEM,> 100 µM (inactive)
same,GI50,UACC-62,95.1 µM (inactive)
same,GI50,U-251,> 100 µM (inactive)
same,GI50,LOX IMVI,> 100 µM (inactive)
same,GI50,OVCAR-5,> 100 µM (inactive)
same,GI50,XF498,> 100 µM (inactive)
same,GI50,RXF 393,> 100 µM (inactive)
same,GI50,HL-60,> 100 µM (inactive)
same,GI50,HCC 2998,> 100 µM (inactive)
same,GI50,A549,> 100 µM (inactive)
same,GI50,HCT-15,> 100 µM
same,GI50,NCI-H226,> 100 µM (inactive)
same,GI50,KM-20L2,> 100 µM (inactive)
same,GI50,SF-539,> 100 µM (inactive)
same,GI50,SK-MEL-28,> 100 µM (inactive)
same,GI50,OVCAR-3,> 100 µM (inactive)
same,GI50,HCT-116,> 100 µM (inactive)
same,GI50,UO-31,> 100 µM (inactive)
same,GI50,HOP-92,> 100 µM (inactive)
same,GI50,HOP-18,> 100 µM (inactive)
same,GI50,SF-268,> 100 µM (inactive)
same,GI50,SNB-19,> 100 µM (inactive)
same,GI50,RPMI-8226,> 100 µM (inactive)
same,GI50,COLO 205,> 100 µM (inactive)
same,GI50,Malme-3M,> 100 µM (inactive)
same,GI50,KM12,> 100 µM (inactive)
same,GI50,HOP-62,> 100 µM (inactive)
same,GI50,786-0,> 100 µM (inactive)
same,GI50,OVCAR-8,> 100 µM (inactive)
same,GI50,HT-29,> 100 µM (inactive)
same,GI50,TK-10,> 100 µM (inactive)
same,GI50,DMS-273,> 100 µM (inactive)
same,GI50,SF-295,> 100 µM (inactive)
same,GI50,K562,> 100 µM (inactive)
same,GI50,SK-MEL-2,> 100 µM (inactive)
same,GI50,DLD-1,> 100 µM (inactive)
same,GI50,ACHN,> 100 µM (inactive)
same,GI50,MOLT-4,> 100 µM (inactive)
same,GI50,EKVX,> 100 µM (inactive)
same,GI50,SK-OV-3,> 100 µM (inactive)
same,GI50,SW-620,> 100 µM (inactive)
same,GI50,CAKI-1,> 100 µM (inactive)
